The text below walks through data of article PMC9516243, “Design of stapled peptide-based PROTACs for MDM2/MDMX atypical degradation and tumor suppression” (Theranostics, 2022).

A short description of one data set: circular dichroism. The settings on record: phosphate buffer (PB); pH 7.2; 20 °C; 10-50 uM. For orientation: Circular dichroism is widely used to follow secondary structure.
A short description of data set [1]: α-Helicity by CD spectroscopy. The format is physicochemical. The settings on record: PB pH 7.2, 10-50 µM peptide, 20°C, calculated from [θ]222. The procedure:
Peptides were dissolved in PB (pH = 7.2) to concentrations ranging from 10 to 50 µM. CD spectra were obtained on a Jasco J-715 spectropolarimeter at 20°C. The spectra were collected using a 0.1 cm path length quartz cuvette with the following measurement parameters: wavelength, 185-255 nm; step resolution, 0.1 nm; speed, 20 nm/min; accumulations, 6; bandwidth, 1 nm. The helical content of each peptide was calculated as reported previously.

The test system of the next data set is HCT116 p53^-/- cells. As to the kind of experiment: Cell viability assay (CCK-8). It is filed as cell-based, human. The settings on record: 72 h. The method, then:
(§1) The human colon carcinoma cell line HCT116 p53^+/+ was obtained from the Cell Bank of the Chinese Academy of Sciences (Shanghai, China). HCT116 p53^-/- cells were generously provided by Prof. Vogelstein of Johns Hopkins University. Both cell lines were cultured in McCoy's 5A medium (Gibco, USA) containing 10% FBS, 100 units/ml penicillin, and 100 μg/ml streptomycin at 37 °C in a humidified incubator containing 5% CO2. Cell viability was measured using a Cell Counting Kit-8 (CCK-8) (Dojindo, Kumamoto, Japan) according to the manufacturer's instructions. In brief, the cells (5 × 10^3 cells/well in […] medium) were cultured for 24 h in 96-well microplates in a humidified 5% CO2 incubator at 37 °C and then treated with varying concentrations of compounds or 0.1% DMSO vehicle control.

A further data set relates to HCT116 p53^+/+ cells. In words: Cell viability assay (CCK-8). It is filed as cell-based, human. The settings on record: 72 h. The procedure: as §1

Positions of bridges follow the written chain, without caps; N, C: chain ends. Non-standard residues stand in square brackets, D forms with d. Residues, ends and D or L forms follow the SMILES beside them. Hyp = O=C(O)[C@@H]1C[C@@H](O)CN1; hLeu = CC(C)CC[C@H](N)C(=O)O; S5 = C=CCCC[C@](C)(N)C(=O)O; PEG2 = NCCOCCOCCC(=O)O; AEA = NCCOCC(=O)O

In the data set “circular dichroism”, `CC(=O)N[C@H](C(=O)N[C@@H](CO)C(=O)N[C@@H](Cc1ccccc1)C(=O)N[C@@H](C)C(=O)N[C@@H](CCC(=O)O)C(=O)N[C@@H](Cc1ccc(O)cc1)C(=O)N[C@@H](Cc1c[nH]c2ccccc12)C(=O)N[C@@H](C)C(=O)N[C@@H](CC(C)C)C(=O)N[C@@H](CC(C)C)C(=O)N[C@@H](CO)C(=O)NCCOCCOCCC(=O)N[C@@H](CC(C)C)C(=O)N[C@@H](C)C(=O)N1C[C@H](O)C[C@H]1C(=O)N[C@@H](Cc1ccc(O)cc1)C(=O)N[C@@H](CCC(C)C)C(=O)N1CCC[C@H]1C(N)=O)[C@@H](C)O` [PMI-HIF1-2] had a helicity of 17%. Also, in data set [1], the “α-helicity (%)” value is given as 17%.
Consider `CC(=O)N[C@H](C(=O)N[C@@H](CO)C(=O)N[C@@H](Cc1ccccc1)C(=O)N[C@@H](C)C(=O)N[C@@H](CCC(=O)O)C(=O)N[C@@H](Cc1ccc(O)cc1)C(=O)N[C@@H](Cc1c[nH]c2ccccc12)C(=O)N[C@@H](C)C(=O)N[C@@H](CC(C)C)C(=O)N[C@@H](CC(C)C)C(=O)N[C@@H](CO)C(=O)NCCOCCOCCOCCC(=O)N[C@@H](CC(C)C)C(=O)N[C@@H](C)C(=O)N1C[C@H](O)C[C@H]1C(=O)N[C@@H](Cc1ccc(O)cc1)C(=O)N[C@@H](CCC(C)C)C(=O)N1CCC[C@H]1C(N)=O)[C@@H](C)O` [PMI-HIF1-3], for which the helicity in the data set “circular dichroism” came to 17%. In addition, in data set [1], the “α-helicity (%)” value is 17%.
As to `CC(=O)N[C@H](C(=O)N[C@@H](CO)C(=O)N[C@@H](Cc1ccccc1)C(=O)N[C@@]1(C)CCCC=CCCC[C@@](C)(C(=O)N[C@@H](CC(C)C)C(=O)N[C@@H](CC(C)C)C(=O)N[C@@H](CO)C(N)=O)NC(=O)[C@H](Cc2c[nH]c3ccccc23)NC(=O)[C@H](Cc2ccc(O)cc2)NC(=O)[C@H](CCC(=O)O)NC1=O)[C@@H](C)O` [SPMI1] (Ac-TSF[S5]EYW[S5]LLS-NH2; staple 4-8), the concentration for half-maximal inhibition (IC50) in the data set on HCT116 p53^-/- cells and in the data set on HCT116 p53^+/+ cells was above 100 µM each time. For the same compound, the helicity in “circular dichroism” came to 4%. Also, the “α-helicity (%)” value in data set [1] was 4%.
For the compound `CC(=O)N[C@H](C(=O)N[C@@H](CO)C(=O)N[C@@H](Cc1ccccc1)C(=O)N[C@@]1(C)CCCC=CCCC[C@@](C)(C(=O)N[C@@H](CC(C)C)C(=O)N[C@@H](CC(C)C)C(=O)N[C@@H](CO)C(=O)NCCOCC(=O)N[C@@H](CC(C)C)C(=O)N[C@@H](C)C(=O)N2C[C@H](O)C[C@H]2C(=O)N[C@@H](Cc2ccc(O)cc2)C(=O)N[C@@H](CCC(C)C)C(=O)N2CCC[C@H]2C(N)=O)NC(=O)[C@H](Cc2c[nH]c3ccccc23)NC(=O)[C@H](Cc2ccc(O)cc2)NC(=O)[C@H](CCC(=O)O)NC1=O)[C@@H](C)O` [SPMI-HIF1-1] (Ac-TSF[S5]EYW[S5]LLS[AEA]LA[Hyp]Y[hLeu]P-NH2; staple 4-8), the IC50 (in general, the midpoint of a concentration-inhibition curve) is above 100 µM with HCT116 p53^-/- cells and 82.1 µM in the data set with HCT116 p53^+/+ cells. Also, the helicity in the data set “circular dichroism” stood at 3%. Besides, the “α-helicity (%)” value in data set [1] is reported as 3%.
For `CC(=O)N[C@H](C(=O)N[C@@H](CO)C(=O)N[C@@H](Cc1ccccc1)C(=O)N[C@@]1(C)CCCC=CCCC[C@@](C)(C(=O)N[C@@H](CC(C)C)C(=O)N[C@@H](CC(C)C)C(=O)N[C@@H](CO)C(=O)NCCOCCOCCC(=O)N[C@@H](CC(C)C)C(=O)N[C@@H](C)C(=O)N2C[C@H](O)C[C@H]2C(=O)N[C@@H](Cc2ccc(O)cc2)C(=O)N[C@@H](CCC(C)C)C(=O)N2CCC[C@H]2C(N)=O)NC(=O)[C@H](Cc2c[nH]c3ccccc23)NC(=O)[C@H](Cc2ccc(O)cc2)NC(=O)[C@H](CCC(=O)O)NC1=O)[C@@H](C)O` [SPMI-HIF1-2] (Ac-TSF[S5]EYW[S5]LLS[PEG2]LA[Hyp]Y[hLeu]P-NH2; staple 4-8), the IC50 in the data set with HCT116 p53^-/- cells is above 100 µM; in the data set on HCT116 p53^+/+ cells, 85.1 µM. In the data set “circular dichroism”, this compound gave a helicity of 2%. For the same compound, the “α-helicity (%)” value in data set [1] was 2%.
